Columns and labels:
POLCO = assay: Pre-emergence action at 320 g/ha against POLCO; assay type: in vivo, Fallopia convolvulus (Polygonum convolvulus); details: visual scoring after about 3 weeks vs untreated controls
Text: (§1) b) Seeds of monocotyledonous and dicotyledonous weed plants and crop plants are placed in plastic or organic planting pots and covered with soil. The compounds of the invention, formulated in the form of wettable powders (WP) or as emulsion concentrates (EC), are then applied onto the surface of the covering soil as aqueous suspension or emulsion with addition of 0.5% additive at a water application rate of 600 l/ha (converted). After the treatment, the pots are placed in a greenhouse and kept under good growth conditions for the trial plants. After about 3 weeks, the effect of the preparations is scored visually in comparison with untreated controls as percentages. For example, 100% activity=the plants have died, 0% activity=like control plants. Tables 13 to 26 below show the effects of selected compounds of the general formula (I) on various harmful plants and at an application rate corresponding to 320 g/ha, which were obtained by the experimental procedure mentioned above.

VIOTR = assay: Pre-emergence action at 320 g/ha against VIOTR; assay type: in vivo, Viola tricolor; details: dosage 320 g/ha
Text: as §1

AMARE = assay: Pre-emergence action at 320 g/ha against AMARE; assay type: in vivo, Amaranthus retroflexus; details: visual scoring after about 3 weeks vs untreated controls
Text: as §1

MATIN = assay: Pre-emergence action at 320 g/ha against MATIN; assay type: in vivo, Tripleurospermum inodorum (Matricaria inodora); details: visual scoring after about 3 weeks vs untreated controls
Text: as §1

SETVI = assay: Pre-emergence action at 320 g/ha against SETVI; assay type: in vivo, Setaria viridis; details: visual scoring after about 3 weeks vs untreated controls
Text: as §1

ALOMY = assay: Pre-emergence action at 320 g/ha against ALOMY; assay type: in vivo, Alopecurus myosuroides; details: scored visually after about 3 weeks vs untreated controls (100% = plants have died)
Text: as §1

VERPE = assay: Pre-emergence action at 320 g/ha against VERPE; assay type: in vivo, Veronica persica; details: visual scoring after about 3 weeks vs untreated controls
Text: as §1

| Compound | Pre-emergence action against POLCO in % (POLCO) | Pre-emergence action against VIOTR in % (VIOTR) | Pre-emergence action against AMARE in % (AMARE) | Pre-emergence action against MATIN in % (MATIN) | Pre-emergence action against SETVI in % (SETVI) | Pre-emergence action at 320 g/ha against ALOMY in % (ALOMY) | Pre-emergence action against VERPE in % (VERPE) |
| --- | --- | --- | --- | --- | --- | --- | --- |
| O=C(O)CNC(=O)C(F)Oc1nn(-c2ccccc2F)c(-c2ccc(F)nc2)c1Br (stereo not drawn) [Example X-012] | 90% | 100% | 100% | 90% | 90% | 90% |  |
| COC(=O)C1CCCN(C(=O)COc2nn(-c3ccccc3F)c(-c3cncc(F)c3)c2Br)C1 (stereo not drawn) [Example X-034] |  | 90% |  |  |  |  | 90% |
| COC(=O)C1CCN(C(=O)COc2nn(-c3ccccc3F)c(-c3cncc(F)c3)c2Br)C1 (stereo not drawn) [Example X-037] | 90% |  | 100% |  |  |  | 100% |
| CCOC(=O)COc1nn(-c2ccccc2F)c(-c2ccc(F)nc2)c1C(F)F [VII-078] |  | 90% | 100% |  |  | 80% | 80% |

From US12180187B2, “1-phenyl-5-azinylpyrazolyl-3-oxyalkyl acids and their use for controlling unwanted plant growth” (BAYER AKTIENGESELLSCHAFT, priority 2019, dated 2024)
